Literature values as cited in US20100323998A1, “TOPICAL COMPOSITION CONTAINING THE COMBINATION OF MUPIROCIN AND BECLOMETHASONE” (Glenmark Pharmaceuticals Ltd., priority 2007, published 2010).

System: Gram-positive and Gram-negative bacteria
Details: in vitro

Q: Which “Growth of Gram-positive and Gram-negative bacteria” value does the source give for C/C(=C\C(=O)OCCCCCCCCC(=O)O)C[C@@H]1OCC(C[C@@H]2O[C@H]2[C@@H](C)[C@H](C)O)[C@@H](O)[C@H]1O (stereo partly drawn) [Mupirocin, (E)-(2S,3R,4R,5S)-5-[(2S,3S,4S,5S)-2,3-Epoxy-5-hydroxy-4-methylhexyl]tetrahydro-3,4-dihydroxy-β-methyl-2H-pyran-2-crotonic acid, ester with 9-hydroxynonanoic acid] here?
A: The value was “inhibits the growth”.
